Active and inactive are the calls of the source.
Columns and labels:
[1] = biological target: T1, Tyrosine-protein phosphatase non-receptor type 7 (Homo sapiens, UniProt P35236); assay type: functional
T1 sequence (P35236 whole entry): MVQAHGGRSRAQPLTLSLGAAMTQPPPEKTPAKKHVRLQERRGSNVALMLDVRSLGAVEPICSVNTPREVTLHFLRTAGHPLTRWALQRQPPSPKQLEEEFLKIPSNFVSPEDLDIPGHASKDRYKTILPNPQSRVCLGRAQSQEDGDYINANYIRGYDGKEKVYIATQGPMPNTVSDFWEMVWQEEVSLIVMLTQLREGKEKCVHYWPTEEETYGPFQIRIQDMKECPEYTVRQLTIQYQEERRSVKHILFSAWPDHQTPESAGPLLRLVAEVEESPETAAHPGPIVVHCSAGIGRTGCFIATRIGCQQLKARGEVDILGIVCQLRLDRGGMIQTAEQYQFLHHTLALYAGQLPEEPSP

[2] = biological target: T2, Tyrosine-protein phosphatase non-receptor type 22 (Homo sapiens, UniProt Q9Y2R2); assay type: functional
T2 sequence (Q9Y2R2 whole entry): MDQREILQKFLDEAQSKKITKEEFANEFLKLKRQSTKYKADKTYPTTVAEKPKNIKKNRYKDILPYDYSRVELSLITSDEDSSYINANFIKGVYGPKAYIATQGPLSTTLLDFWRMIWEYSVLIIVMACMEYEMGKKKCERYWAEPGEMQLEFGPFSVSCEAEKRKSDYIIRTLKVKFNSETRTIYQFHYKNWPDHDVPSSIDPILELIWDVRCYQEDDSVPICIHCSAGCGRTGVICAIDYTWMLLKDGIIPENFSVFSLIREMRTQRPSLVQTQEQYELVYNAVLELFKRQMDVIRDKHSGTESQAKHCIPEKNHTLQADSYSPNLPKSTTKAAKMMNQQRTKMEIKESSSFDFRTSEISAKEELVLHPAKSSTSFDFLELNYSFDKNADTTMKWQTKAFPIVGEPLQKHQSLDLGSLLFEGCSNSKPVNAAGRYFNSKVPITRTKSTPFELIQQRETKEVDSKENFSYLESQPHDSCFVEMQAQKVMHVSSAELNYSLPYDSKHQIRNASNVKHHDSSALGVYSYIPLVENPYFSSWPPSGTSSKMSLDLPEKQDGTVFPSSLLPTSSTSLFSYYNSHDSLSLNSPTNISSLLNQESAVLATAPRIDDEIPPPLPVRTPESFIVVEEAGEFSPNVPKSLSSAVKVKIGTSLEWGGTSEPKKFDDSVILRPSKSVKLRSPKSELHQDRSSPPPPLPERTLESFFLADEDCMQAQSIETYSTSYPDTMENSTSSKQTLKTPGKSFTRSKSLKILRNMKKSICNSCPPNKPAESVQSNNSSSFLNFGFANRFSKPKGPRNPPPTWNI

[3] = biological target: T2, Tyrosine-protein phosphatase non-receptor type 22; assay type: functional; remark: listed apart in the source
[4] = NIH-3T3 fibroblast cytotoxicity, dose response, cytotoxicity control, cell-based, fluorescence, Alamar Blue, secondary assay (AID 2327); assay type: functional;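 note: NIH-3T3 mouse fibroblasts cultured with fluconazole at 8 µg/mL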
[5] = fluconazole-exposed Candida albicans growth modulators – fluorescence, retest, confirmation (AID 2467); assay type: functional, cell-based
Exodeoxyribonuclease V = Exodeoxyribonuclease V (Escherichia coli (strain K12), UniProt P04993+P07648+P08394); experiment: RecBCD inhibition via phage-restricted bacterial growth – absorbance, V66 E. coli, mutant T4 phage, counter-screen for AddAB inhibitor project, dose response (AID 492957); assay type: functional, cell-based, Escherichia coli str. K-12 substr. MG1655
Sequence of Exodeoxyribonuclease V (P04993 whole entry): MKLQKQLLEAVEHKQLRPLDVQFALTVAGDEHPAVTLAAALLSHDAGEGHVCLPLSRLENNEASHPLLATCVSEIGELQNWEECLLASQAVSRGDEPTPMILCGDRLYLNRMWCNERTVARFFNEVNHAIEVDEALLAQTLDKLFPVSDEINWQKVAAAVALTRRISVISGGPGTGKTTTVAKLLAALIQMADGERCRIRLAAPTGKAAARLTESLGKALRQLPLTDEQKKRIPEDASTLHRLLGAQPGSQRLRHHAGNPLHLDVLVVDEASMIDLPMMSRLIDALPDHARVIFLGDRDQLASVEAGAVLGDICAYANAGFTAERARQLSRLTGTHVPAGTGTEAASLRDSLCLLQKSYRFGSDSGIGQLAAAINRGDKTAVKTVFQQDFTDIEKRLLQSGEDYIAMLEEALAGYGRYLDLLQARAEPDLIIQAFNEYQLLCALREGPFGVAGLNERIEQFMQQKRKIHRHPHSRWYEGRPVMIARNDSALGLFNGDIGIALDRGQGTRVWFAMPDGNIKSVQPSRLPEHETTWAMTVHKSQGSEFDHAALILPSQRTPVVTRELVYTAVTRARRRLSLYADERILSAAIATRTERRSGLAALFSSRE
Sequence of Exodeoxyribonuclease V (P07648 whole entry): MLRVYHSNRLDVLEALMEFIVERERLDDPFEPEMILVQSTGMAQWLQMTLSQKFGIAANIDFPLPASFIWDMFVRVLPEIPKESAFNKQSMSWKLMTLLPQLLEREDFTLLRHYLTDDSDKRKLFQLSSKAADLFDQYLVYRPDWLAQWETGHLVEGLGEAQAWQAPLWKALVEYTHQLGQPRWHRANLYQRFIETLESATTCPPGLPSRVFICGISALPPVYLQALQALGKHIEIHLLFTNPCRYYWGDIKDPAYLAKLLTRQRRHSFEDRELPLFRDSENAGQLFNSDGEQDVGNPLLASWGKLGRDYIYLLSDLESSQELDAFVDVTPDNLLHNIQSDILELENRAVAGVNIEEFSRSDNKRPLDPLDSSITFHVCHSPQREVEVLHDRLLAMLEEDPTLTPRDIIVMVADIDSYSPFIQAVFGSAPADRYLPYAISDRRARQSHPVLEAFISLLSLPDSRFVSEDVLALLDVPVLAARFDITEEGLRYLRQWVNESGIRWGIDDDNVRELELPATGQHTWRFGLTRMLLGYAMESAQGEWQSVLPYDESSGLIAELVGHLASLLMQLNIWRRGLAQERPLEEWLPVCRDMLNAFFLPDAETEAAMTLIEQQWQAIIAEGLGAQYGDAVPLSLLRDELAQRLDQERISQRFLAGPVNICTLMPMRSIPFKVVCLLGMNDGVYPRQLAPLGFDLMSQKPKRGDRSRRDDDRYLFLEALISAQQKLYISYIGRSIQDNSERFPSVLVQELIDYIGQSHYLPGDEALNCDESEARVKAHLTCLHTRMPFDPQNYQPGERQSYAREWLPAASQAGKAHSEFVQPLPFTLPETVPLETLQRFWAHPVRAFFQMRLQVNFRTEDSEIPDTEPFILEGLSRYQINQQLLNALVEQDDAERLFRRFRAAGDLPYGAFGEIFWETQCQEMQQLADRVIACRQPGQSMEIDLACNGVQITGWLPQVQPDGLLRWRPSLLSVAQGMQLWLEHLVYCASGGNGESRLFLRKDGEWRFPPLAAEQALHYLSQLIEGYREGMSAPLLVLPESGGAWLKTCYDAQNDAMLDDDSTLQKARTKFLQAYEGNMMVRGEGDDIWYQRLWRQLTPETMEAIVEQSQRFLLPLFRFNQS
Sequence of Exodeoxyribonuclease V (P08394 whole entry): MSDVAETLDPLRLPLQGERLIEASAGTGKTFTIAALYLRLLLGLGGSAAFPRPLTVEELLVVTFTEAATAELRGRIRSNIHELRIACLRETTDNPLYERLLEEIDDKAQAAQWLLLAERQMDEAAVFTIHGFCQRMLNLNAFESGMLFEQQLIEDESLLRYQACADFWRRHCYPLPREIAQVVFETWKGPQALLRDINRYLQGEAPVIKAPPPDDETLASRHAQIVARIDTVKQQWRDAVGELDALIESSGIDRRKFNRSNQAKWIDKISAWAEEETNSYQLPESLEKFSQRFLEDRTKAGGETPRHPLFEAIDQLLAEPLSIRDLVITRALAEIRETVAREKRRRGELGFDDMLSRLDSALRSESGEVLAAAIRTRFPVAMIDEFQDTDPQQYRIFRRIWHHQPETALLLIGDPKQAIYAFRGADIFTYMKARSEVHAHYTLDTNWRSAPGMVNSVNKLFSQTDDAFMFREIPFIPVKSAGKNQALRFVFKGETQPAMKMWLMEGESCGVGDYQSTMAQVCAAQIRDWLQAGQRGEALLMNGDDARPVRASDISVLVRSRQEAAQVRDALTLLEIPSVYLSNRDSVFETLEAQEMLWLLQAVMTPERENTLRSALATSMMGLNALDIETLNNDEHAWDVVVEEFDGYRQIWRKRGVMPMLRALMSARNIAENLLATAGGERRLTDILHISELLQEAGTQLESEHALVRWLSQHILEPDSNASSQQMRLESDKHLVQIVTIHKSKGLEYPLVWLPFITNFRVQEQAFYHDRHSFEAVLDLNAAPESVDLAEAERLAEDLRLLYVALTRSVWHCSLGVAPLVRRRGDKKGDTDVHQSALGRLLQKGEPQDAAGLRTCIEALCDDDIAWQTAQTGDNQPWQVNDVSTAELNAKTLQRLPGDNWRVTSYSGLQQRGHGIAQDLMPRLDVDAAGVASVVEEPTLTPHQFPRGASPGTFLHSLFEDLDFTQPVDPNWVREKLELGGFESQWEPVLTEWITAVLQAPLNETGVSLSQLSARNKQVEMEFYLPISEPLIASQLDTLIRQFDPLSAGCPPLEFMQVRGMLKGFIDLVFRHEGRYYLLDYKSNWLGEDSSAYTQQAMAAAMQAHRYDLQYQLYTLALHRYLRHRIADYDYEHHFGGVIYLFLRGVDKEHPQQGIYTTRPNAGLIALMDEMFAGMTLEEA

[6] = Counterscreen for AddAB inhibitors: absorbance-based bacterial cell-based high throughput dose response assay for inhibitors of bacterial viability. [Related pubchem assays (depositor defined):AID435030, AID449728, AID449731, AID488942, AID488955, AID488956]; assay type: functional
Vero = experiment: cells; assay type: functional; details: Chlorocebus sabaeus
[7] = HGIII-sPLA2 enzyme inhibition potency – biochemical, QFRET, IC50, dose response (AID 743457);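 note: green fluorescence rise as the enzyme cleaves BODIPY PC-A2 in liposomes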
[8] = biological target: T3, Delta-type opioid receptor (Homo sapiens, UniProt P41143); experiment: HTS Image-Based Screen for Antagonists of the DOR Receptor. [Related pubchem assays (depositor defined):AID1777, AID1785, AID1786, AID2133]; assay type: functional
T3 sequence (P41143 whole entry): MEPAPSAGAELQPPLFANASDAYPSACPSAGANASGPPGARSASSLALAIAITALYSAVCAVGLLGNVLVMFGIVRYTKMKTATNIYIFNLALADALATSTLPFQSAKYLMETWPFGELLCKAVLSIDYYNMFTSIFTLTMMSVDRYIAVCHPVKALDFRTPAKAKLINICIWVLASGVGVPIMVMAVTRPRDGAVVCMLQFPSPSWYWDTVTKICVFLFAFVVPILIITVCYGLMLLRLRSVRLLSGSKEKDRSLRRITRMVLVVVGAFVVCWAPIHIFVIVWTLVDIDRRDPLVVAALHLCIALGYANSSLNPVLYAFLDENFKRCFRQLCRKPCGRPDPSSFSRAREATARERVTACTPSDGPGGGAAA

[9] = luciferase reporter signal suppression in cells – H4 neuroglioma cells, luminescence, dose response (AID 1990); assay type: functional, cell-based
Mu-type opioid receptor = Mu-type opioid receptor (Homo sapiens, UniProt P35372); experiment: HTS Image-Based Screen for Agonists of the MOR Receptor. [Related pubchem assays (depositor defined):AID1777, AID1785, AID1786, AID2133]; assay type: functional;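 note: imaging of beta-arrestin GFP recruitment into spots after receptor activation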
[10] = biological target: T3, Delta-type opioid receptor; experiment: HTS Image-Based Screen for Agonists of the DOR Receptor. [Related pubchem assays (depositor defined):AID1777, AID1786, AID2133]; assay type: functional
BJ [11] = experiment: BJ-TERT fibroblast viability loss – cell-based, RAS-independent, luminescence, dose response (AID 1933); assay type: functional; details: Homo sapiens
cells [12] = assay type: functional, cell-based
[13] = Luminescence Cell-Based Dose Response HTS to Identify Inhibitors of 5'UTR Stem-Loop Driven Prion Protein mRNA Translation in H4 Neuroglioblastoma Cells. [Related pubchem assays: 1827 (Project Summary), 1813 (Primary HTS)]; assay type: functional
[14] = alpha-synuclein stem-loop luciferase translation blockers – H4 neuroglioma cells, luminescence, confirmation (AID 1988); assay type: functional, cell-based
BJ [15] = experiment: cells; assay type: functional, cell-based; details: Homo sapiens
[16] = Luminescence-based dose response cell-based high throughput screening assay for cytotoxic compounds using the IEC-6 intestinal epithelial cell line. [Related pubchem assays: 1858 (Summary AID.), 1825 (Counterscreen.), 1907 (Confirmation screen.)]; assay type: functional
cells [17] = assay type: functional, cell-based; remark: listed apart in the source
[18] = biological target: T4, Kappa-type opioid receptor (Homo sapiens, UniProt P41145); assay type: functional
T4 sequence (P41145 whole entry): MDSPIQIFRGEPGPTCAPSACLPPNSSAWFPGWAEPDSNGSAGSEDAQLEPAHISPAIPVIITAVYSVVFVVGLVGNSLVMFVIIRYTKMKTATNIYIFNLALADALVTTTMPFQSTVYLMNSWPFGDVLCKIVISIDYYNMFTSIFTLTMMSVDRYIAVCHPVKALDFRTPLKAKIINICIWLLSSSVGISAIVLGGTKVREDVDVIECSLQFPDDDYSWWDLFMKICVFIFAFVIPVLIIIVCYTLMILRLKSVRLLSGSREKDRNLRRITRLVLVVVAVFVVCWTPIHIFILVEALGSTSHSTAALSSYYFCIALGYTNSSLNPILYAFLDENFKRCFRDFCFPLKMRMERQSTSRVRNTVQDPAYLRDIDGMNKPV

Beta-galactosidase = Beta-galactosidase (Escherichia coli, UniProt Q8VNN2); assay type: functional
Sequence of Beta-galactosidase (Q8VNN2 whole entry): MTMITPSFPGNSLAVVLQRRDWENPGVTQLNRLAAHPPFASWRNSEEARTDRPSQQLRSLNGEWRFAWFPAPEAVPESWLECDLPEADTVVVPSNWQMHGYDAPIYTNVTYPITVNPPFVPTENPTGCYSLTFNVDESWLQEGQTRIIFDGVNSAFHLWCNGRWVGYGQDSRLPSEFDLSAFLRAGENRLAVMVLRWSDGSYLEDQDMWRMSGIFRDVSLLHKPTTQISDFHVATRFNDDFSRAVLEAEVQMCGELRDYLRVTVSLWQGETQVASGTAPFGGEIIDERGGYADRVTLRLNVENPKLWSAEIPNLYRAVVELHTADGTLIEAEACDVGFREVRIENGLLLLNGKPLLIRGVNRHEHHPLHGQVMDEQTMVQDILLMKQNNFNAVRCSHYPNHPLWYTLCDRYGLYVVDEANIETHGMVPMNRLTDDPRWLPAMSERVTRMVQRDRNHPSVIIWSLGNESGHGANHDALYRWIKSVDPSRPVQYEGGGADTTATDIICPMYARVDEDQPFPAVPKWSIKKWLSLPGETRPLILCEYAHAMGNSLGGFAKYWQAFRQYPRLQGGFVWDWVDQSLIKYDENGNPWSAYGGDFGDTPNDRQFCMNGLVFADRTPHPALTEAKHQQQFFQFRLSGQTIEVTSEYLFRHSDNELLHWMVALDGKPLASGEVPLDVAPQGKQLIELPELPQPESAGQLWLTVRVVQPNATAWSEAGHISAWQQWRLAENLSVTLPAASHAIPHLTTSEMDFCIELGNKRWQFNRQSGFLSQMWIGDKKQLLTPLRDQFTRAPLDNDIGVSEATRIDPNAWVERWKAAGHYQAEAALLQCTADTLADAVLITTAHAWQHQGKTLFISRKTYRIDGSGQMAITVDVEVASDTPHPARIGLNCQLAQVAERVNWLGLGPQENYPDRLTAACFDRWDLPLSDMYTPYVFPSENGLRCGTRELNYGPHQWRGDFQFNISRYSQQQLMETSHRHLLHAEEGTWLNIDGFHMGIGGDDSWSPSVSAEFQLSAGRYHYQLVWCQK

BJ [19] = experiment: BJ-TERT-LT-ST fibroblast viability loss – cell-based, RAS-independent, luminescence, dose response (AID 1935); assay type: functional; details: Homo sapiens;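 note: BJ fibroblasts immortalized with TERT plus LT and ST oncogenes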
[20] = biological target: T4, Kappa-type opioid receptor; assay type: functional; remark: listed apart in the source
[21] = DRD fibroblast viability loss – cell-based, non-viral oncogenic, luminescence, dose response (AID 1934); assay type: functional; details: Homo sapiens
Caspase-3 = biological target: T5, Caspase-3 (Homo sapiens, UniProt P42574); assay type: functional;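 note: Dose-response selectivity test against caspase-3 for candidate inhibitors of sentrin-specific proteases (SENPs)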
T5 sequence (P42574 whole entry): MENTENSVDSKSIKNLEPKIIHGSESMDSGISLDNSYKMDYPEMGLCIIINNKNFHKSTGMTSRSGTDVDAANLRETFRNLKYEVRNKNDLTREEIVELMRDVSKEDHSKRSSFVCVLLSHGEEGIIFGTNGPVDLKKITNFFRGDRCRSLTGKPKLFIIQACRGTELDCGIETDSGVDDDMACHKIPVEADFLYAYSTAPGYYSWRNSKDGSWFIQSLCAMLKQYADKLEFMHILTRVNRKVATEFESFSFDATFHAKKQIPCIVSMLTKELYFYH

[22] = biological target: T6, Sentrin-specific protease 7 (Homo sapiens, UniProt Q9BQF6); assay type: functional;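 note: Luminescence-based dose-response confirmation of ultra-high-throughput screening hits, measuring inhibition of SENP7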
T6 sequence (Q9BQF6 whole entry): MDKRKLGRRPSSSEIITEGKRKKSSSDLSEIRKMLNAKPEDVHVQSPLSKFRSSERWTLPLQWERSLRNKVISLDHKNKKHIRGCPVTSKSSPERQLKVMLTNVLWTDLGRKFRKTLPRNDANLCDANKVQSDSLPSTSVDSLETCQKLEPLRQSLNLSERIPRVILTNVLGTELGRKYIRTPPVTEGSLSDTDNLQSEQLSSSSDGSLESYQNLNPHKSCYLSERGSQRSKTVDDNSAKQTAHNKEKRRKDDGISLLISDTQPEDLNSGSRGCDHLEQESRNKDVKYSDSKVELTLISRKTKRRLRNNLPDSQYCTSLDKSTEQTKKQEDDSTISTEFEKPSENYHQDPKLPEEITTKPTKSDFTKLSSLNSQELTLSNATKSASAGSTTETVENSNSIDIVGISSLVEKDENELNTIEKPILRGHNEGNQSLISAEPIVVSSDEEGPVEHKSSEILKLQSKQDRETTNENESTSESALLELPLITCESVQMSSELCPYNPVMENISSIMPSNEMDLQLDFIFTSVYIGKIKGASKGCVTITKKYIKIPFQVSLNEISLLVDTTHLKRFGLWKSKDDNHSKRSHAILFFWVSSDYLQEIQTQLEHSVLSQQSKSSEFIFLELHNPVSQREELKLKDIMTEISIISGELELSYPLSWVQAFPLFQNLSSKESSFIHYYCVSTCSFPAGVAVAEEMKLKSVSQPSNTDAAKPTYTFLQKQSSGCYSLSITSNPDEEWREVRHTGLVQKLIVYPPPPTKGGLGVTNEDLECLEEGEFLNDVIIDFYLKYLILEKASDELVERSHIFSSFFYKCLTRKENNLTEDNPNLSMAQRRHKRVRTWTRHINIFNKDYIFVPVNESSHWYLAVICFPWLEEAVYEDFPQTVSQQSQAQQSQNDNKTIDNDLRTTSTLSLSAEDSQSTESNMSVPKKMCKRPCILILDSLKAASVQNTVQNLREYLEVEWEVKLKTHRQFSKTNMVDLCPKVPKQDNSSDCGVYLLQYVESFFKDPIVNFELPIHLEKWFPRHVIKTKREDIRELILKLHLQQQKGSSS

[23] = biological target: T7, Sentrin-specific protease 6 (Homo sapiens, UniProt Q9GZR1); assay type: functional;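 note: Luminescence-based dose-response confirmatory assay of SENP6 inhibition, following up an ultra-high-throughput screen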
T7 sequence (Q9GZR1 whole entry): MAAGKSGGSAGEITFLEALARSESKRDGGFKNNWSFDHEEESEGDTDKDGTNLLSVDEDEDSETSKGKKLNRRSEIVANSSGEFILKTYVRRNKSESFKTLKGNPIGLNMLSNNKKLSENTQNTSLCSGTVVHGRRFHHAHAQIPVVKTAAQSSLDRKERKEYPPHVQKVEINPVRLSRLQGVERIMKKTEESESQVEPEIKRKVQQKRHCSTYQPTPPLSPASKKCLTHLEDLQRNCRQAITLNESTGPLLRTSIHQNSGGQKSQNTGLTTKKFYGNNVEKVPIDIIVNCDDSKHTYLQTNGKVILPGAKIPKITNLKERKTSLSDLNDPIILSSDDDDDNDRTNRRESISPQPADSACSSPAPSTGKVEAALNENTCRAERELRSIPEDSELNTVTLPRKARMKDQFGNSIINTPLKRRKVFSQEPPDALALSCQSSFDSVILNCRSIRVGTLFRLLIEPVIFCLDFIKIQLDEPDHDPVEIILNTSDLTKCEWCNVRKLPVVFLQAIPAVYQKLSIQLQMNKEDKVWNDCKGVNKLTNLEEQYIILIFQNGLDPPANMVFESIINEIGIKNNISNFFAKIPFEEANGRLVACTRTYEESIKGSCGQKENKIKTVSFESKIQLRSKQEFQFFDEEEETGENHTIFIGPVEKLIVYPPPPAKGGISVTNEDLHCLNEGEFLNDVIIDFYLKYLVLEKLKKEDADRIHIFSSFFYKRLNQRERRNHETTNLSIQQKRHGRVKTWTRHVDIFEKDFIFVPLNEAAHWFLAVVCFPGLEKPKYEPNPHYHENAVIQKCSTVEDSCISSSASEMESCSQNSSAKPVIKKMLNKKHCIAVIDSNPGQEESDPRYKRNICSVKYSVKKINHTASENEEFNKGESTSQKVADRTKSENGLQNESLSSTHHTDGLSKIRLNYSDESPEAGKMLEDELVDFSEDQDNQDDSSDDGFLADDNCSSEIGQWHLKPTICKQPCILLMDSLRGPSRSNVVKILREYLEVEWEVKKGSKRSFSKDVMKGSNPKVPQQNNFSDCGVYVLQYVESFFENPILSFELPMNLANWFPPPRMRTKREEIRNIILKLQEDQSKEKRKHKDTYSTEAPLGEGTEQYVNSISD

[24] = biological target: T8, Sentrin-specific protease 8 (Homo sapiens, UniProt Q96LD8); assay type: functional;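 note: luminescence read-out of SENP8 inhibition, dose-response confirmation following an ultra-high-throughput screen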
T8 sequence (Q96LD8 whole entry): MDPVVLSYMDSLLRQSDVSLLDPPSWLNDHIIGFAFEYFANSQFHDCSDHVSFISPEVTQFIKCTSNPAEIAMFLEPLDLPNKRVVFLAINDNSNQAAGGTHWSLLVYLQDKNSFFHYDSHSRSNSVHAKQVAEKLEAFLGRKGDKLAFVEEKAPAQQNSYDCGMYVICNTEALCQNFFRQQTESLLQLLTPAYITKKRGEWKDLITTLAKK

INS1 = experiment: INS-1E survival protection against cytokine death – cell-based, luminescence, retest, dose response (AID 449756); assay type: functional; details: Rattus norvegicus;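 note: cell death triggered by IL-1 beta plus TNF-alpha plus IFN-gamma mixture; protective hits raise ATP signal compared with cytokine alone wells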

Structure (SMILES): COc1ccc2c(OC)cc(=O)n(C)c2c1
- IC50 [1]: > 79.4 µM (inactive)
- IC50 [2]: > 79.4 µM (inactive)
- IC50 [3]: > 79.4 µM (inactive)

Structure (SMILES): O=C(NC(=S)NNC(=O)c1cc2ccccc2cc1O)c1ccco1
- EC50 [4]: > 160 µM (inactive)
- EC50 [5]: 2.19 µM (active)
- IC50 (Exodeoxyribonuclease V): > 119 µM (inactive)
- IC50 [6]: > 119 µM (inactive)
- CC50 (Vero): 14.4 µM (active)
- IC50 [7]: > 40.6 µM (inactive)

Structure (SMILES): COc1cccc2sc(Nc3nc(-c4ccccn4)cs3)nc12
- IC50 [8]: > 32 µM (inactive)
- EC50 [9]: 84.1 µM (active)
- EC50 (Mu-type opioid receptor): > 32 µM (inactive)
- EC50 [10]: > 32 µM (inactive)
- EC50 (BJ [11]): 12.3 µM (inconclusive)
- EC50 (cells [12]): 64.5 µM (active)
- EC50 [13]: 0.126 µM (active)
- EC50 [14]: 2.23 µM (active)
- EC50 (BJ [15]): 12.2 µM (active)
- IC50 [16]: 1.4 µM (active)
- EC50 (cells [17]): 6.91 µM (active)
- IC50 [18]: 1.62 µM (active)
- EC50 (Beta-galactosidase): > 31.5 µM (inactive)
- EC50 (BJ [19]): 8.02 µM (inconclusive)
- IC50 [20]: > 32 µM
- EC50 [21]: 17.5 µM (inconclusive)
- IC50 (Caspase-3): 31.7 µM (active)
- IC50 [22]: 4.38 µM (active)
- IC50 [23]: 6.04 µM (active)
- IC50 [24]: > 100 µM (inactive)
- AC50 (INS1): 1.17 µM (active)

Reference: ChEMBL document CHEMBL1201862, “PubChem BioAssay data set” (2004)
